The source of these data is publication PMC12387182, “Polyphenolic Profiling and Evaluation of Antioxidant, Antidiabetic, Anti-Alzheimer, and Antiglaucoma Activities of Allium kharputense and Anchusa azurea var. azurea” (Life, 2025).

One assay is described as follows: ABTS scavenging activity. As to the method:
In addition, the ABTS^•^+ scavenging capacity of A. kharputense and A. azurea was determined. The mixture comprised 2 mM ABTS in water combined with 2.45 mM potassium persulfate (K2S2O8) to form ABTS^•+. This mixture was then kept for six hours at room temperature and in the dark. The study was performed by first diluting the solution in phosphate buffer (pH 7.4) to achieve an absorption of 0.800 ± 0.05 at 734 nm in a 1 mL cuvette. The solution was then equilibrated at 30 °C, the temperature at which all subsequent tests were conducted. Subsequently, 3 mL of each of A. kharputense and A. azurea in ethanol at various concentrations (10–30 µg/mL) were combined with 1 mL each of ABTS^•+ solution. Following a 30 min period of agitation, the absorbances were measured at 734 nm, and the radical scavenging activities were calculated for each concentration.

A further assay can be described thus: DPPH scavenging activity. As to the method: DPPH solution was prepared one day before the experimental measurement. The solution bottle was kept in the dark and stirred at 4 °C for 16 h. Aluminum foil was used to cover the bottle. Shortly after the preparation of 0.1 mM DPPH solution in ethanol, 0.5 mL of this solution was added to 2 mL A. kharputense and A. azurea extracts in ethanol at various concentrations (10–30 µg/mL). A. kharputense and A. azurea samples were vortexed and incubated at 30 °C for 30 min in the dark. The DPPH^• absorbances were measured and evaluated at 517 nm in comparison with the blank sample [40].
Background: DPPH is a stable violet radical that fades when it is reduced.

The conditions of assay [1]: cited from earlier work.
Assay [2] is described as follows: Cu^2+ reducing ability (CUPRAC). As to conditions: absorbance at 30 µg/mL. As to the method: Equal volumes of 1.0 mM CuCl2, 7.5 mM neocuprine solutions, and 1.0 M ammonium acetate buffer (pH 6.5) were prepared according to the technique of Apak et al.. The plants were mixed with three different concentrations of the samples (15–45 µg/mL in ethanol), and the total reaction volume was adjusted to 2 mL. After the tubes were kept at room temperature for 30 min, the absorbance values at 450 nm were read spectrophotometrically.

The nature of a further assay: Fe^3+ reducing. As to conditions: absorbance at 30 µg/mL.
Assay [3] can be described thus: Fe^3+-TPTZ reducing (FRAP). As to conditions: absorbance at 30 µg/mL. The method, then:
The ferric reducing capacity (FRAP) of plasma is measured using the technique outlined. At low pH, a strong blue hue with a maximum absorption at 593 nm is produced when a ferric–tripyridyltriazine (Fe^3+-TPTZ) complex is reduced to the Fe^2+ form.

In the next assay the target is α-glycosidase (Saccharomyces cerevisiae, UniProt P53341). As to conditions: cited from earlier work.
α-glycosidase, sequence (P53341 whole entry): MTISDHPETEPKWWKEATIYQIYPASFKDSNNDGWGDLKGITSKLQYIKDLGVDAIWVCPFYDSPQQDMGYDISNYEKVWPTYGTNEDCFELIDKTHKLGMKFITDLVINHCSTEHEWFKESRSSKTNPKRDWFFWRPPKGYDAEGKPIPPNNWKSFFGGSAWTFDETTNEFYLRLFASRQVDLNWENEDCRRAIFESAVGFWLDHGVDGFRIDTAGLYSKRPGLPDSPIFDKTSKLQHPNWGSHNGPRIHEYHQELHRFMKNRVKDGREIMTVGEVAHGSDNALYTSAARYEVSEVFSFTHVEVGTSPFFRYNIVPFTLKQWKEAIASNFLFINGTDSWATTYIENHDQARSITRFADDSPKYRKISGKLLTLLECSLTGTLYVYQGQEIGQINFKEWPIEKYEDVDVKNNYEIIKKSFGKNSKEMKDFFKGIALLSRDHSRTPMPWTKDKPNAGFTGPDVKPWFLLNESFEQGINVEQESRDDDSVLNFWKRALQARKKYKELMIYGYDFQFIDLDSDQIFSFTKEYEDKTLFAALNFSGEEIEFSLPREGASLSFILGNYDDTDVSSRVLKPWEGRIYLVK

As for `O=C1O[C@H]([C@@H](O)CO)C(O)=C1O` [Ascorbic acid], in “ABTS scavenging activity”, the “ABTS^•+ Scavenging IC50” value is 28.79 ± 0.120 µg/mL. Further, the “DPPH^• Scavenging IC50” value in the assay “DPPH scavenging activity” is 18.61 ± 0.120 µg/mL. The “DPPH radical scavenging activity (IC50)” value in assay [1] was 3.6 µg/mL.
Consider `COc1ccc(O)c(C(C)(C)C)c1` [BHA, butylated hydroxyanisole], for which the “Cu^2+ Reducing A (450 nm)” value in assay [2] is 1.58 ± 0.016. Also, in the assay “Fe^3+ reducing”, the “Fe^3+ Reducing A (700 nm)” value was determined as 1.76 ± 0.026. The “Fe^3+-TPTZ Reducing A (593 nm)” value in assay [3] worked out at 1.75 ± 0.040. Further, the “ABTS^•+ Scavenging IC50” value in “ABTS scavenging activity” was determined as 38.59 ± 0.130 µg/mL. Also, the “DPPH^• Scavenging IC50” value in “DPPH scavenging activity” is 23.87 ± 0.097 µg/mL.
For `Cc1cc(C(C)(C)C)c(O)c(C(C)(C)C)c1` [BHT, butylated hydroxytoluene] the same measures were 2.15 ± 0.068, 2.08 ± 0.062, 1.50 ± 0.080, 32.00 ± 0.100 µg/mL and 13.34 ± 0.011 µg/mL.
For `Cc1c(C)c2c(c(C)c1O)CCC(C)(C(=O)O)O2` (centres unmarked) [Trolox] the same measures were 1.04 ± 0.102, 1.45 ± 0.005, 0.84 ± 0.010, 53.26 ± 0.070 µg/mL and 20.98 ± 0.016 µg/mL.
Regarding `O=c1c(O[C@@H]2O[C@H](CO)[C@@H](O)[C@H](O)[C@H]2O)c(-c2ccc(O)c(O)c2)oc2cc(O)cc(O)c12` [isoquercitrin], the “α-glycosidase inhibitory effect compared with Acarbose” value on α-glycosidase was “stronger than that of Acarbose”.
In the case of `Cc1c(C)c2c(c(C)c1O)CC[C@@](C)(CCC[C@H](C)CCC[C@H](C)CCCC(C)C)O2` [α-Tocopherol, α-tocopherol], in assay [2], the “Cu^2+ Reducing A (450 nm)” value is recorded as 1.47 ± 0.044. For the same compound, the “Fe^3+ Reducing A (700 nm)” value in “Fe^3+ reducing” was 0.94 ± 0.059. The “ABTS^•+ Scavenging IC50” value in “ABTS scavenging activity” was determined as 25.12 ± 0.070 µg/mL. Also, the “DPPH^• Scavenging IC50” value in the assay “DPPH scavenging activity” is listed as 30.29 ± 0.056 µg/mL.
